Measured values from patent US20230257480A1, “ENHANCING BLOOD-BRAIN BARRIER DRUG TRANSPORT BY TARGETING ENDOGENOUS REGULATORS” (THE BOARD OF TRUSTEES OF THE LELAND STANFORD JUNIOR …, priority 2019, published 2023).

Molecular target: T1, ALPL (Mus musculus, UniProt P09242)
T1 construct: from tissue; host or cells: brain sections (cerebral cortex vasculature) of aged C57BL/6 mice dosed in vivo
T1 sequence (P09242 18-501): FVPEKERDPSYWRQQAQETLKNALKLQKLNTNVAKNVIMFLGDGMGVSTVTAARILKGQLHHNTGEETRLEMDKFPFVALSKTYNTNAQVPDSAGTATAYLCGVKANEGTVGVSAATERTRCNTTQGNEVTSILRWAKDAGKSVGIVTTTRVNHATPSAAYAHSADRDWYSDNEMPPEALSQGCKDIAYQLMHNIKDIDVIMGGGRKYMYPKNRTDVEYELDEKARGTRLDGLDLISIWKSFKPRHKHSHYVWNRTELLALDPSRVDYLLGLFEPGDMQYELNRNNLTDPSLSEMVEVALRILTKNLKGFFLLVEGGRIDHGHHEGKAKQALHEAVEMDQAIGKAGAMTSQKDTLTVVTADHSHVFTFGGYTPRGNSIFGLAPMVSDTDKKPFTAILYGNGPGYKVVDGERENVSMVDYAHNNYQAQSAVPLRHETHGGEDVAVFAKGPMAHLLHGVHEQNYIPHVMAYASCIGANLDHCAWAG
Experiment: ALPL activity in the cerebral cortex vasculature (Red Alkaline Phosphatase Substrate Kit)
Type: in vivo
Settings: aged (22 m.o.) mice, 8.75 mg/kg intraperitoneally twice per day for three days, vs vehicle
Source text: FIG. 12A is a dot plot representation of cell-surface, druggable gene candidates on brain endothelial cells. Genes were plotted by their degree of blood-brain barrier specificity (Daneman et al., PLoS One (2010). doi:10.1371/journal.pone.0013741) and correlation with plasma uptake. Genes were colored by their upregulation (brown) or downregulation (green) with age. FIG. 12B includes representative images of calcified nodules (Alizarin red staining) detected in aged (23 m.o.—bottom panel) but not young (3 m.o.—top panel) mice, recapitulating nodules seen in pericyte-deficient Pdgfbret/ret mice (Keller et al., Nat. Genet. (2013). doi:10.1038/ng.2723) (representative image of n=5 mice per age). […] FIG. 12E is a graph illustrating quantification of ALPL expression in the cerebral cortex vasculature of young (3 m.o.) and aged (23 m.o.) mice (n=7, two-sided t-test; mean+/−s.e.m.). […] Uptake in the brain endothelium and parenchyma was assessed by flow cytometry and confocal microscopy of the cortex and hippocampus. […] FIG. 12H is a graph illustrating quantification of ALPL activity in the cerebral cortex vasculature of aged (22 m.o.) mice treated with ALPL inhibitor (anti-ALPL) or vehicle and in young (3 m.o.) mice (n=6-9, one-way ANOVA with Tukey's multiple comparisons correction; mean+/−s.e.m.). […]

With COc1ccc(OC)c(S(=O)(=O)Nc2cnc3ccccc3c2)c1 [ALPL inhibitor, 2,5-Dimethoxy-N-(quinolin-3-yl)benzenesulfonamide] the “ALPL activity in the aged brain vasculature” value was “decreased”.
